Assay results published in PubChem BioAssay (NCI).
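A five-concentration, 48-hour dose response in 96-well plates underlies each endpoint, interpolated linearly between surrounding concentrations. At the GI50, growth is halved. At the TGI there is no net growth.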

Key:
Assay in all cases: inhibition of tumour cell growth, NCI panel, 48 h
[1] = tested on: 786-0 renal
[2] = tested on: EKVX NSCLC
[3] = tested on: HCT-116 colon
[4] = tested on: KM12 colon
[5] = tested on: OVCAR-3 ovarian
[6] = tested on: OVCAR-4 ovarian
[7] = tested on: SK-MEL-5 melanoma
[8] = tested on: SNB-75 CNS
[9] = tested on: SW-620 colon
[10] = tested on: NCI-H226 lung

Compound | TGI [1] [µM] | TGI [2] [µM] | TGI [3] [µM] | TGI [4] [µM] | TGI [5] [µM] | TGI [6] [µM] | TGI [7] [µM] | TGI [8] [µM] | TGI [9] [µM] | GI50 [1] [µM] | GI50 [2] [µM] | GI50 [3] [µM] | GI50 [4] [µM] | GI50 [10] [µM] | TGI [10] [µM] | GI50 [5] [µM] | GI50 [7] [µM] | GI50 [8] [µM] | GI50 [9] [µM] | GI50 [6] [µM]
CCCCCCCCCCCCCCCC(=O)OCC1OC(n2cc(F)c(=O)[nH]c2=O)C(NC(=O)OCc2ccccc2)C(O)C1O (configuration not stated) | 36.2 | 52.8 | 30.4 | 45 | 33.8 | 42 | 36.1 | 37.5 | 73 | – | – | – | – | – | – | – | – | – | – | –
COc1ccc(/C=C/C(=O)c2c(-c3ccccc3)nn(C)c(=O)c2N2CCCCC2)cc1 | 38.2 | > 100 | 23.6 | – | – | – | 29.1 | – | > 100 | – | – | – | – | – | – | – | – | – | – | –
C#COc1cccc(Nc2ncnc3cc(NC(=O)[C@@H](C)Cl)ccc23)c1 | > 62.5 | > 62.5 | > 62.5 | > 62.5 | > 62.5 | – | 32.8 | 44.8 | > 62.5 | 19.3 | 28.7 | 2.98 | 3.25 | 50.1 | > 62.5 | 2.68 | 4.09 | 8.03 | 3.95 | –
Cc1ccc(-n2nc(C(OC3OC(CO)C(O)C(O)C3O)C(O)CO)c3nc4cc(C)c(C)cc4nc32)cc1 (configuration not stated) | > 100 | > 100 | > 100 | > 100 | > 100 | > 100 | – | > 100 | – | – | – | – | – | – | – | – | – | – | – | –
CCOC(=O)C[C@@]12CCCN[C@]1(C)CCc1ccccc12 | > 100 | > 100 | > 100 | > 100 | > 100 | > 100 | > 100 | > 100 | > 100 | – | – | – | – | – | – | – | – | – | – | –
COc1ccc(-c2cnc(-c3ccncc3-c3cccc(OC)c3)o2)cc1 | 15 | 25.1 | 11.8 | 1.82 | – | 29.2 | 0.226 | 23.2 | 19.3 | 0.0627 | 1.04 | 0.0375 | 0.0471 | 0.153 | 15.6 | – | 0.0379 | 0.0329 | 0.0383 | 0.677
Oc1cn(-c2ccc(Cl)cc2)nc1-c1n[nH]c(=S)n1-c1ccc(F)cc1 | > 100 | 91.1 | 25.5 | > 100 | > 100 | > 100 | 35.9 | – | 78.3 | 28.1 | 27.5 | 11.6 | 13 | 26.6 | 90.2 | 22 | 14.3 | – | 22.8 | 45.4
Cc1ccc(C(=O)Nc2ccc(Oc3cc4cnn(C)c4cc3-c3cn[nH]c3)c(F)c2)c(=O)n1-c1ccc(F)cc1 | > 100 | – | > 100 | > 100 | > 100 | > 100 | > 100 | > 100 | > 100 | > 100 | – | 6.31 | 0.0304 | 2.16 | > 100 | > 100 | 5.59 | 5.61 | > 88.9 | > 100
